Experimental data from the NIST ThermoML archive (doi:10.1016/j.fluid.2018.10.006).
± gives the expanded uncertainty stated by the source.

Conditions: Fluid (supercritical or subcritical phases), Coaxial cylinder method

CCCCCC [hexane]
thermal conductivity [W/m/K]
Conditions	525.42 K	553 K
1000 kPa	–	0.04354 ± 0.0022
1120 kPa	–	0.0439 ± 0.0022
1400 kPa	–	0.04407 ± 0.0022
1500 kPa	–	0.04431 ± 0.0022
1600 kPa	–	0.04443 ± 0.0022
1700 kPa	–	0.04455 ± 0.0022
1800 kPa	–	0.0448 ± 0.0022
1900 kPa	–	0.04493 ± 0.0022
2000 kPa	–	0.04518 ± 0.0023
2100 kPa	–	0.04543 ± 0.0023
2200 kPa	–	0.04556 ± 0.0023
2300 kPa	–	0.04582 ± 0.0023
2400 kPa	–	0.04608 ± 0.0023
2500 kPa	0.04372 ± 0.0022	0.04635 ± 0.0023
2600 kPa	–	0.04661 ± 0.0023
2700 kPa	–	0.04688 ± 0.0023
2740 kPa	0.04444 ± 0.0022	–
2800 kPa	–	0.04716 ± 0.0023
2850 kPa	0.04444 ± 0.0022	–
2900 kPa	–	0.04743 ± 0.0024
3000 kPa	0.04701 ± 0.0023	0.04743 ± 0.0024
3050 kPa	0.04756 ± 0.0024	–
3100 kPa	0.04855 ± 0.0024	0.04814 ± 0.0024
3150 kPa	0.04855 ± 0.0024	–
3200 kPa	0.04958 ± 0.0024	0.04857 ± 0.0024
3250 kPa	0.05034 ± 0.0025	–
3300 kPa	0.05065 ± 0.0025	0.04897 ± 0.0024
3350 kPa	0.05177 ± 0.0025	–
3400 kPa	0.05311 ± 0.0026	0.04942 ± 0.0024
3450 kPa	0.0538 ± 0.0026	–
3500 kPa	0.05526 ± 0.0027	0.05003 ± 0.0024
3550 kPa	0.05659 ± 0.0027	–
3600 kPa	0.05777 ± 0.0028	0.0505 ± 0.0025
3650 kPa	0.059 ± 0.0028	–
3700 kPa	0.0603 ± 0.0029	0.05127 ± 0.0025
3750 kPa	0.06164 ± 0.0029	–
3800 kPa	0.06281 ± 0.003	0.05191 ± 0.0025
3850 kPa	0.06378 ± 0.003	–
3900 kPa	0.06477 ± 0.0031	0.05255 ± 0.0026
4000 kPa	0.06632 ± 0.0031	0.05325 ± 0.0026
4100 kPa	0.06685 ± 0.0032	0.05395 ± 0.0026
4200 kPa	0.06685 ± 0.0032	0.05468 ± 0.0027
4268 kPa	–	0.05523 ± 0.0027
4300 kPa	0.06685 ± 0.0032	–
4390 kPa	–	0.05618 ± 0.0027
4400 kPa	0.06684 ± 0.0032	–
4500 kPa	0.06684 ± 0.0032	–
4600 kPa	0.06684 ± 0.0032	–
4700 kPa	0.06683 ± 0.0032	0.0589 ± 0.0028
4800 kPa	0.06683 ± 0.0032	0.05987 ± 0.0029
4900 kPa	0.06848 ± 0.0032	0.06075 ± 0.0029
5000 kPa	0.06848 ± 0.0032	0.06166 ± 0.0029
5100 kPa	0.06848 ± 0.0032	–
5200 kPa	0.06848 ± 0.0032	–
5300 kPa	0.07141 ± 0.0033	0.06418 ± 0.003
5400 kPa	0.07172 ± 0.0034	–
5500 kPa	0.07172 ± 0.0034	0.06559 ± 0.0031
5600 kPa	0.07172 ± 0.0034	–
5700 kPa	0.07203 ± 0.0034	–
5800 kPa	0.07203 ± 0.0034	0.06746 ± 0.0032
5900 kPa	0.07218 ± 0.0034	–
6000 kPa	0.07233 ± 0.0034	0.06843 ± 0.0032
6100 kPa	0.07249 ± 0.0034	–
6200 kPa	0.07249 ± 0.0034	–
6300 kPa	0.07265 ± 0.0034	0.06974 ± 0.0033
6400 kPa	0.07281 ± 0.0034	–
6500 kPa	0.0728 ± 0.0034	0.07019 ± 0.0033
6600 kPa	0.07296 ± 0.0034	–
6700 kPa	0.07312 ± 0.0034	–
6800 kPa	0.07328 ± 0.0034	0.07109 ± 0.0033
6900 kPa	0.07348 ± 0.0034	–
7000 kPa	0.07361 ± 0.0034	0.0717 ± 0.0034
7100 kPa	0.07377 ± 0.0034	–
7200 kPa	0.07393 ± 0.0034	0.07202 ± 0.0034
7317 kPa	0.0741 ± 0.0034	–
7328 kPa	0.07412 ± 0.0034	–
7405 kPa	0.07412 ± 0.0034	–
7500 kPa	0.07428 ± 0.0035	0.07265 ± 0.0034
7600 kPa	0.07445 ± 0.0035	–
7700 kPa	0.07462 ± 0.0035	–
7800 kPa	0.07478 ± 0.0035	0.07329 ± 0.0034
7900 kPa	0.07482 ± 0.0035	–
8000 kPa	0.07495 ± 0.0035	0.07361 ± 0.0034
8100 kPa	0.07512 ± 0.0035	–
8200 kPa	0.07529 ± 0.0035	–
8300 kPa	0.07546 ± 0.0035	0.07427 ± 0.0035
8400 kPa	0.07546 ± 0.0035	–
8500 kPa	0.07546 ± 0.0035	0.07427 ± 0.0035
8600 kPa	0.07563 ± 0.0035	–
8700 kPa	0.07583 ± 0.0035	–
8800 kPa	0.07597 ± 0.0035	0.07545 ± 0.0035
8900 kPa	0.07614 ± 0.0035	–
9000 kPa	0.07632 ± 0.0035	0.07545 ± 0.0035
9100 kPa	0.07632 ± 0.0035	–
9200 kPa	0.07649 ± 0.0036	–
9250 kPa	–	0.07562 ± 0.0035
9300 kPa	0.07667 ± 0.0036	–
9400 kPa	0.07674 ± 0.0036	–
9500 kPa	0.07684 ± 0.0036	0.07582 ± 0.0035
9600 kPa	0.07701 ± 0.0036	–
9700 kPa	0.07712 ± 0.0036	–
9800 kPa	0.07726 ± 0.0036	0.07617 ± 0.0035
9900 kPa	0.07737 ± 0.0036	–
10000 kPa	–	0.07635 ± 0.0035
10150 kPa	0.07772 ± 0.0036	–
10200 kPa	0.07779 ± 0.0036	–
10300 kPa	0.07793 ± 0.0036	0.07652 ± 0.0036
10400 kPa	0.07804 ± 0.0036	–
10500 kPa	0.07815 ± 0.0036	0.07688 ± 0.0036
10600 kPa	0.07833 ± 0.0036	–
10800 kPa	0.07855 ± 0.0036	0.07716 ± 0.0036
11000 kPa	–	0.0773 ± 0.0036
11500 kPa	0.07941 ± 0.0037	0.07777 ± 0.0036
11600 kPa	0.07956 ± 0.0037	–
11800 kPa	0.07975 ± 0.0037	–
12000 kPa	0.07994 ± 0.0037	0.07832 ± 0.0036
12300 kPa	0.08032 ± 0.0037	0.07869 ± 0.0036
12500 kPa	0.08048 ± 0.0037	–
12870 kPa	–	0.07914 ± 0.0037
13500 kPa	–	0.07983 ± 0.0037
14000 kPa	–	0.08021 ± 0.0037
14500 kPa	–	0.08068 ± 0.0037
15000 kPa	–	0.08119 ± 0.0037
